US9877980B2, “Method and composition for treatment or prevention of type 2 diabetes and hyperlipidemia” (Chun-Ching Shih, priority 2016, dated 2018)
Marks after values point to notes of the source that are not given here.

Experiments:
Format in all cases: in vivo
[1] = tested on: C57BL/6J mice on high-fat diet (HFD); assay: Hepatic lipids in HFD mice; conditions: 4 weeks
Description: (§1) The following experiment was performed and approved by the guidelines of the Institutional Animal Care and Use Committee of Central Taiwan University of Science and Technology. The 4-week old male C57BL/6J mice (total amount n=63) were purchased from the National Laboratory Animal Breeding and Research Center (Taipei, Taiwan). After acclimatization for one week, all of the mice were divided randomly into the control (CON) group and the high-fat diet (HFD) group. For the following 12 weeks, the CON group (n=9) was kept on a low-fat diet (Diet 12450B, Research Diets, Inc., New Brunswick, N.J., USA), while the HFD group (n=54) was exposed to a high-fat diet (Diet 12451, Research Diets, New Brunswick, N.J., USA). The low-fat diet was composed of protein 20%, carbohydrate 70% and fat 10%, whereas the high-fat diet was composed of protein 20%, carbohydrate 35%, and fat 45% (of total energy, % kcal). After HFD exposure for 8 weeks, the HFD group was further randomly subdivided into 6 groups (n=9 per group) to receive different treatments by oral gavage once daily for four weeks and on HFD. […] The HF+B1, HF+B2, and […] are collectively termed BB-treated HFD groups in the following examples. The CON mice were administered vehicle. After dosing for 4 weeks, the mice were given no food at night and sacrificed after 12 h of fasting on the next day. All of the individual tissues were collected and weighed, and portions were instantly frozen using liquid nitrogen and kept at −80° C. for subsequent target gene analysis. Blood samples (0.8 mL) were collected for analysis of blood parameters.
For hepatic lipid extraction, a 0.375 g liver samples were homogenized with 1 mL distill water for 5 minutes. The dried pellet was finally resuspended in 0.5 mL ethanol and analyzed using a triglycerides kit as used for analyzing the serum lipids set forth above.

[2] = tested on: epididymal adipocyte of HFD mice; assay: Histology of epididymal white adipose tissue (adipocyte hypertrophy); conditions: 4 weeks, three measurements
Description: as §1
(§2) Small pieces of epididymal white adipose tissue and liver tissue were fixed with formalin (200 g/kg) neutral buffered solution and embedded in paraffin. Sections of 8 μm […] were cut and stained with hematoxylin and eosin. For microscopic examination, a microscope (Leica, DM2500) was used, and the images were taken using a Leica Digital Camera (DFC-425-C).
Adipocyte hypertrophy, the pathological enlargement of adipocytes, is often found in subjects with type 2 diabetes and hyperlipidemia. To verify the therapeutic effect of the compound of formula I on adipocyte hypertrophy, morphology of the EWAT for the CON group and the BB-treated HFD groups was examined. Micrographs of the EWAT sections for each group were analyzed to determine the mean area of an epididymal adipocyte using the software ImageJ.

[3] = tested on: C57BL/6J mice on high-fat diet (HFD); assay: Absolute tissue weight, body weight, weight gain and food intake in HFD mice; conditions: 4 weeks
Description: as §1
Body weight of each mouse was monitored and measured daily at the same time throughout the experimentation. The difference in body weight between two consecutive days is defined as body weight gain. The food pellets for mice were weighed and put into the food container. Unconsumed pellets of high-fat diet were discarded each day and fresh pellets of high-fat diet were provided to ensure food quality throughout the experimentation. The high-fat food pellets were stored at 4° C.

[4] = tested on: C57BL/6J mice on high-fat diet (HFD); assay: Blood parameters (glucose, insulin, TG, FFA, TC, leptin, adiponectin) in HFD mice; conditions: 4 weeks
Description: as §1, with “For the following 12 weeks, the CON group (n=9) was kept on a low-fat diet (Diet 12450B, Research Diets, Inc., New Brunswick, N.J., USA), while the HFD group (n=54) was exposed to a high-fat diet (Diet 12451, Research Diets, New Brunswick, N.J., USA). The low-fat diet was composed of protein 20%, carbohydrate 70% and fat 10%, whereas the high-fat diet was composed of protein 20%, carbohydrate 35%, and fat 45% (of total energy, % kcal).” left out
A portion of the blood samples obtained from the retro-orbital sinus of fasted mice were immediately used to measure blood glucose levels using Sidekick glucose analyzer (YSI 1500, YSI Incorporated, Yellow Springs, USA) according to the glucose oxidase method. Heparin (30 units/mL, Sigma) was added into other portions of the blood samples. […] Concentrations of plasma triglycerides (TG), total cholesterol (TC), and free fatty acids (FFA) were determined using commercial assay kits according to the manufacturer's instructions (Triglycerides-E test, Cholesterol-E test, and FFA-C test, Wako Pure Chemical, Osaka, Japan). Plasma insulin, leptin, and adiponectin levels were assessed using commercial assay kits according to the manufacturer's instructions (mouse insulin ELISA kit, Mercodia, Uppsala, Sweden; mouse leptin ELISA kit, Morinaga, Yokohama, Japan; Mouse Adiponectin ELISA kit, Crystal Chem International, Downers Grove, Ill., USA).

hepatocytes of HFD mice = assay: Histology of liver tissue (hepatocellular ballooning); conditions: 4 weeks, grade 0 absence, 1 a few cells
Description: as §1, §2
Based on previous report, the designation of histological hepatocellular ballooning findings include grade 0 for absence of degeneration, grade 1 for degeneration in a few cells, and […] for degeneration in many cells.

CN(CCOc1ccc(CC2SC(=O)NC2=O)cc1)c1ccccn1 (centres unmarked) [Rosi, rosiglitazone, reference compound]
Liver lipids Total lipid ([1]; 10 mg/kg/day oral gavage): 70.1 ± 8.2^d mg/g | Liver lipids Triacylglycerol ([1]; 10 mg/kg/day oral gavage): 52.1 ± 7.7^d μmol/g | mean area of an epididymal adipocyte ([2]; 10 mg/kg/day oral gavage): 5886.4 ± 58.7 μm^2 | Absolute tissue weight BAT ([3]; 10 mg/kg/day oral gavage): 0.206 ± 0.012 g | Absolute tissue weight EWAT ([3]; 10 mg/kg/day oral gavage): 0.919 ± 0.097^d g | Absolute tissue weight Liver ([3]; 10 mg/kg/day oral gavage): 0.886 ± 0.031 g | Absolute tissue weight MWAT ([3]; 10 mg/kg/day oral gavage): 0.302 ± 0.029 g | Absolute tissue weight RWAT ([3]; 10 mg/kg/day oral gavage): 0.224 ± 0.032^f g | Absolute tissue weight Skeletal muscle ([3]; 10 mg/kg/day oral gavage): 0.960 ± 0.078 g | Absolute tissue weight Visceral fat ([3]; 10 mg/kg/day oral gavage): 1.143 ± 0.124^e g | Body weight ([3]; 10 mg/kg/day oral gavage): 28.61 ± 1.51 g | Food intake ([3]; 10 mg/kg/day oral gavage): 2.11 ± 0.06 g/day/mouse | Weight gain ([3]; 10 mg/kg/day oral gavage): 0.38 ± 0.32 g | Blood parameters Adiponectin ([4]; 10 mg/kg/day oral gavage): 3.058 ± 0.040^f μg/mL | Blood parameters FFA ([4]; 10 mg/kg/day oral gavage): 1.08 ± 0.11^e mEq/L | Blood parameters Leptin ([4]; 10 mg/kg/day oral gavage): 1.661 ± 0.013^f ng/mL | Blood parameters TC ([4]; 10 mg/kg/day oral gavage): 111.5 ± 2.3^f mg/dL | hepatocellular ballooning mean score (hepatocytes of HFD mice; 10 mg/kg/day oral gavage): 0.8±0.2

CC(C)OC(=O)C(C)(C)Oc1ccc(C(=O)c2ccc(Cl)cc2)cc1 [Feno, fenofibrate, reference compound]
Liver lipids Total lipid ([1]; 250 mg/kg/day oral gavage): 62.4 ± 3.9^f mg/g | Liver lipids Triacylglycerol ([1]; 250 mg/kg/day oral gavage): 43.8 ± 5.6^f μmol/g | mean area of an epididymal adipocyte ([2]; 250 mg/kg/day oral gavage): 6982.3±309.7 μm^2 | Absolute tissue weight BAT ([3]; 250 mg/kg/day oral gavage): 0.139 ± 0.011 g | Absolute tissue weight EWAT ([3]; 250 mg/kg/day oral gavage): 0.763 ± 0.116^f g | Absolute tissue weight Liver ([3]; 250 mg/kg/day oral gavage): 1.669 ± 0.033^f g | Absolute tissue weight MWAT ([3]; 250 mg/kg/day oral gavage): 0.264 ± 0.056 g | Absolute tissue weight RWAT ([3]; 250 mg/kg/day oral gavage): 0.173 ± 0.032^f g | Absolute tissue weight Skeletal muscle ([3]; 250 mg/kg/day oral gavage): 0.990 ± 0.078 g | Absolute tissue weight Visceral fat ([3]; 250 mg/kg/day oral gavage): 0.936 ± 0.147^f g | Body weight ([3]; 250 mg/kg/day oral gavage): 26.92 ± 0.96 g | Weight gain ([3]; 250 mg/kg/day oral gavage): −0.58 ± 0.48^d g | Blood parameters Adiponectin ([4]; 250 mg/kg/day oral gavage): 3.101 ± 0.028^f μg/mL | Blood parameters FFA ([4]; 250 mg/kg/day oral gavage): 0.91 ± 0.08^f mEq/L | Blood parameters Leptin ([4]; 250 mg/kg/day oral gavage): 1.206 ± 0.015^f ng/mL | Blood parameters TC ([4]; 250 mg/kg/day oral gavage): 104.5 ± 5.5^f mg/dL | hepatocellular ballooning mean score (hepatocytes of HFD mice; 250 mg/kg/day oral gavage): 0.6±0.1
